Experimental findings from ChEMBL document CHEMBL1125227, “Potential antitumor agents. 62. Structure-activity relationships for tricyclic compounds related to the colon tumor active drug 9-oxo-9H-xanthene-4-acetic acid” (J Med Chem, 1991) are described below.

What all share (format): functional, organism-based
Settings in all cases: Mus musculus

In assay [1] the test system is MC-38. The assay can be described thus: In Vivo antitumor effect on subcutaneously implanted C38 colon tumor in mice and examined by histopathology and compared with control.( - = <50% hemorrhagic response) at optimal dose of 750 (mg/kg).
The subject of assay [2] is MC-38. As to the kind of experiment: In Vivo antitumor effect on subcutaneously implanted C38 colon tumor in mice and examined by histopathology and compared with control.( + = 50-90% hemorrhagic necrosis response) at optimal dose of 750 (mg/kg).
The test system of assay [3] is MC-38. The assay can be described thus: In Vivo antitumor effect on subcutaneously implanted C38 colon tumor in mice and examined by histopathology and compared with control.( - = <50% hemorrhagic response) at optimal dose of 330 (mg/kg).
Assay [4] relates to MC-38. As to the kind of experiment: In Vivo antitumor effect on subcutaneously implanted C38 colon tumor in mice and examined by histopathology and compared with control.( ++ = >90% hemorrhagic necrosis response) at optimal dose of 220 (mg/kg).
Assay [5] concerns MC-38. The assay can be described thus: In Vivo antitumor effect on subcutaneously implanted C38 colon tumor in mice and examined by histopathology and compared with control.( - = <50% hemorrhagic response) at optimal dose of 500 (mg/kg).
In assay [6] the test system is MC-38. The assay can be described thus: In Vivo antitumor effect on subcutaneously implanted C38 colon tumor in mice and examined by histopathology and compared with control.(+ = 50-90% hemorrhagic necrosis response) at optimal dose of 750 (mg/kg).
Assay [7] has as its system MC-38. The assay can be described thus: In Vivo antitumor effect on subcutaneously implanted C38 colon tumor in mice and examined by histopathology and compared with control.( + = 50-90% hemorrhagic necrosis response) at optimal dose of 500 (mg/kg).

Turning to `O=C(O)Cc1cccc2c1Oc1ccccc1CC2=O`, the Activity in the assay with MC-38 [1] is <50% hemorrhagic response at optimal dose of 750 mg/kg.
As for `O=C(O)Cc1cccc2nc3ccccc3nc12`, the Activity in the assay on MC-38 [1] is <50% hemorrhagic response at optimal dose of 750 mg/kg.
On the same count and under the same terms, then `O=C(O)Cc1cccc2c1Oc1ccccc1O2`, with <50% hemorrhagic response at optimal dose of 750 mg/kg; and `O=C(O)Cc1cccc2oc3ccccc3c12`, with <50% hemorrhagic response at optimal dose of 750 mg/kg.
For the compound `O=C(O)Cc1cccc2c1Oc1ccccc1C(=O)C2`, the Activity in the assay with MC-38 [2] is reported as 50-90% hemorrhagic necrosis response at optimal dose of 750 mg/kg.
As to `O=C(O)Cc1cccc2c1Oc1ccccc1S2`, the Activity in the assay on MC-38 [3] is listed as <50% hemorrhagic response at optimal dose of 330 mg/kg.
On to `O=C(O)Cc1cccc2c(=O)c3ccccc3[s+]([O-])c12` (stereo unspecified), for which the Activity with MC-38 [1] is reported as <50% hemorrhagic response at optimal dose of 750 mg/kg.
As to `O=C(O)Cc1cccc2c(=O)c3ccccc3oc12`, in the assay on MC-38 [4], the Activity is >90% hemorrhagic necrosis response at optimal dose of 220 mg/kg.
In the case of `O=C(O)Cc1cccc2cc3ccccc3cc12`, in the assay with MC-38 [2], the Activity is on record as 50-90% hemorrhagic necrosis response at optimal dose of 750 mg/kg.
As to `O=C(O)Cc1cccc2c1Oc1ccccc1C2`, the Activity with MC-38 [5] was <50% hemorrhagic response at optimal dose of 500 mg/kg.
Take `O=C(O)Cc1cccc2c(=O)c3ccccc3sc12`: the Activity with MC-38 [3] is <50% hemorrhagic response at optimal dose of 330 mg/kg.
Regarding `O=C(O)Cc1cccc2c1Oc1ccccc1S2(=O)=O`, the Activity with MC-38 [1] is <50% hemorrhagic response at optimal dose of 750 mg/kg.
Still for that read-out and setting: then `O=C(O)Cc1cccc2c1S(=O)(=O)c1ccccc1C2=O`, with <50% hemorrhagic response at optimal dose of 750 mg/kg.
Take `O=C(O)Cc1cccc2c1C(=O)c1ccccc1C2=O`: in the assay on MC-38 [6], the Activity is given as 50-90% hemorrhagic necrosis response at optimal dose of 750 mg/kg.
Consider `O=C(O)Cc1cccc2c1oc1ccccc12`, for which, in the assay on MC-38 [7], the Activity was 50-90% hemorrhagic necrosis response at optimal dose of 500 mg/kg.
On to `O=C(O)Cc1cccc2c1Oc1ccccc1[S+]2[O-]` (stereo unspecified), for which the Activity in the assay with MC-38 [1] is on record as <50% hemorrhagic response at optimal dose of 750 mg/kg.
